Test results reported in US20120252796A1, “COMPOUNDS FOR THE TREATMENT OF DYSLIPIDEMIA AND RELATED DISEASES” (priority 2009, published 2012).
Blank lines part the entries; values can stand above or below the molecule they belong to.

Assays:
PCSK9 [1] = biological target: T1, PCSK9 (Homo sapiens, UniProt Q8NBP7); assay: PCSK9-LDLR in vitro Binding Assay (ELISA)
Summary of the method: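 Solid-phase ELISA: PCSK9 premixed with compound at varying concentrations added to immobilized recombinant LDLR-AB domain. Bound PCSK9 detected via biotinylated anti-His mAb and HRP-streptavidin, absorbance at 450 nm; EC50 by nonlinear regression from duplicate points.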
Target sequence in this assay (Q8NBP7 153-692): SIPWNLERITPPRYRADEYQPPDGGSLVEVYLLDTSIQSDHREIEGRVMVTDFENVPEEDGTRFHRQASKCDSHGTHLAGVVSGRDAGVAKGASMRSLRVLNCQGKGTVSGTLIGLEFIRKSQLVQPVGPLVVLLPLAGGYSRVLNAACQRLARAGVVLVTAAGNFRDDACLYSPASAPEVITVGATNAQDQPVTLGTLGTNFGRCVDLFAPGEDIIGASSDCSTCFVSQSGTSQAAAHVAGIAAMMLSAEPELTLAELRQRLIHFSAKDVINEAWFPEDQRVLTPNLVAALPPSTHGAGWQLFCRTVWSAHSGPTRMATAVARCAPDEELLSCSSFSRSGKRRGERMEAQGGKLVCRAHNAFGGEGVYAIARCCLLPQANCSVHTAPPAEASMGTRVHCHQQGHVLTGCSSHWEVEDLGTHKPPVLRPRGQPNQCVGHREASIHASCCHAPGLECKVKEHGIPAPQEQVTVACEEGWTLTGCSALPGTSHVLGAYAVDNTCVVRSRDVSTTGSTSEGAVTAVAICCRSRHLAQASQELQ
Target sequence in this assay (Q8NBP7 31-152 partner limits assumed): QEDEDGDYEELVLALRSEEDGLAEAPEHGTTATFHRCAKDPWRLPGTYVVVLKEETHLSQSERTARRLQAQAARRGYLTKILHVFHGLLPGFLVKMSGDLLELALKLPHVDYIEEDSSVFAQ

[2] = test system: LPS induced dyslipidemia model C57 mice; assay: LDL-C lowering activity in LPS induced dyslipidemia model C57 mice; format: in vivo; details: male C57 mice, i.p. or oral, 24 hours after LPS, vs Vehicle group
Procedure: Male C57 mice of 7-10 week age are grouped based on non-fasting LDL-C levels, on next day these mice were administered with Vehicle or test compounds (i.p. or oral) and 30 min after compound administration lipolysaccharide (LPS) was administered. After LPS administration all animals were kept on fasting for 24 hours, after that animals were bled and LDL-C was measured. The percent change in LDL-C in test compound group Vs Vehicle group was calculated.

PCSK9 [3] = biological target: T1, PCSK9; assay: SPR binding studies (BIACORE3000); details: 25° C., phosphate buffer pH 7.4; compounds run at 10 nM, 100 nM and 1 micro mole, concentration of the value not stated
Procedure: Instrumentation: BIACORE3000 from GE Life Sciences was used and the Interaction analysis was performed at 25° C.
Buffers: phosphate buffer pH 7.4 supplied by Biacore supplemented with 0.01% dimethyl sulfoxide (DMSO) was used as running buffer during the assay.
Immobilization of Ligand: Sensor chip CM5 was used for analysis. The sensor chip consists of a carboxymethyl-modified dextran polymer linked to a gold-covered glass support. The ligand was diluted to 10 micro gram/ml in 10 mM sodium acetate, pH5.0 and immobilized to the sensor chip, using amine coupling. Running buffer without DMSO was used during immobilization. The surface was activated by injecting a solution containing 0.2M N-ethyl-N′-dimethyl aminopropyl-carbodiimide (EDC) and 50 mM N-hydroxy succinimide (NHS). The system was set for Aim for immobilization of about 1000 RU and the surface was blocked by injecting 1 Mehanolamine at pH 8.5. Then the surface was washed with 50 mM NaOH by injecting two 30 second-pulses to remove off non covalently bound ligand and to stabilize the baseline (automated procedure). Activated dextran was used as a reference surface. To ensure highest sensitivity the SPR Detector response was normalized before running the assay. By calibrating the detector at various light intensities under Conditions of total internal reflection (automated procedure). Solvent correction for DMSO was also carried to minimize the error in data.
Assay Design: A binding assay was set up for different compounds at three different concentrations (10 nM, 100 nM and 1 micro mole), and were injected over the reference and Ligand flow cells at a flow rate of 30 micro liter/min. Each cycle consisted of a 1-min waiting period for monitoring of the baseline stability and 3 minute injection of compound with a 5 minute Undisturbed dissociation phase, and the surface was regenerated with 50 mM NaoH solution. Compound responses in the reference flow cell were subtracted with that of ligand and a solvent correction run was carried in between and the binding potential of the compounds was reported as relative response units (RU).
Target sequence in this assay (Q8NBP7 153-692): as the sequence (Q8NBP7 153-692) above

[4] = test system: HF-HC diet fed Syrian golden hamsters; assay: Lipid lowering effect in HF-HC diet fed hamster model; format: in vivo; design: concentration or dose not given beside the values; details: oral gavage once daily, day 14
Text: In this experiment, Syrian golden hamsters which were kept on high fat—high cholesterol (HF-HC) fructose diet for 2 weeks were divided into various groups based on LDL-C and Total cholesterol levels. The treatment was given by oral gavages once daily for 14 days. The blood was collected by retro-orbital sinus puncture method under light ether anesthesia on day 0 (pretreatment), and day 14 of the treatment for lipid levels measurements. The percent change in LDL-C in compound group Vs Vehicle group was calculated.

Molecule: Cc1oc(-c2ccccc2)nc1CC1COC(C)(C(=O)NO)OC1 (single isomer, unassigned) [Example 6, N-hydroxy-2-methyl-5-c-((5-methyl-2-phenyloxazol-4-yl)methyl)-1,3-dioxane-2-carboxamide]
Relative response (RU) (PCSK9 [3]): 2.65 RU
% Inhibition PCSK9 (PCSK9 [1]; 5 µM): 10%
% Inhibition PCSK9 (PCSK9 [1]; 10 µM): 11%
% Inhibition PCSK9 (PCSK9 [1]; 100 µM): 22%

Molecule: Cc1oc(C(C)(C)C)nc1CC1COC(C)(C(=O)N2CCOCC2)OC1 (centres unmarked) [Example 73, (5-((2-(tert-butyl)-5-methyloxazol-4-yl)methyl)-2-methyl-1,3-dioxan-2-yl)(morpholino)methanone]
Relative response (RU) (PCSK9 [3]): 2.4 RU
inhibition at 1 µM (PCSK9 [1]; Concentration 1 μM): 25%
inhibition at 10 µM (PCSK9 [1]; Concentration 10 μM): 27%
inhibition at 100 µM (PCSK9 [1]; Concentration 100 μM): 37%

Molecule: Cc1ccc(-c2nc(CC3COC(C)(C(=O)NCC4CCOCC4)OC3)c(C)o2)cc1 (centres unmarked) [Example 63, 2-methyl-5-c-((5-methyl-2-(p-tolyl)oxazol-4-yl)methyl)-N—((tetrahydro-2H-pyran-4-yl)methyl)-1,3-dioxane-2-carboxamide]
% Inhibition PCSK9 (PCSK9 [1]; Concentration 1 μM, 1 µM): 39%
% Inhibition PCSK9 (PCSK9 [1]; Concentration 10 μM, 10 µM): 40%
% Inhibition PCSK9 (PCSK9 [1]; Concentration 100 μM, 100 µM): 51%
% Change in LDL-C [2]: −9.0 ± 10.0%

Molecule: Cc1oc(-c2ccccc2)nc1CC1COC(C)(C(=O)N2CCOCC2)OC1 (centres unmarked) [Example 12, (2-methyl-5-c-((5-methyl-2-phenyloxazol-4-yl)methyl)-1,3-dioxan-2-yl)(morpholino)methanone]
% Inhibition PCSK9 (PCSK9 [1]; Concentration 10 μM): 19%
% Inhibition PCSK9 (PCSK9 [1]; Concentration 100 μM): 18%
% Change in LDL-C [2]: −40 ± 10.0%

Molecule: Cc1oc(-c2ccccc2)nc1CC1COC(C)(C(=O)NO)OC1 (single isomer, unassigned) [Example 7, N-hydroxy-2-methyl-5-t-((5-methyl-2-phenyloxazol-4-yl)methyl)-1,3-dioxane-2-carboxamide]
% Inhibition PCSK9 (PCSK9 [1]; Concentration 1 μM): 11%
% Inhibition PCSK9 (PCSK9 [1]; Concentration 10 μM): 12%
% Inhibition PCSK9 (PCSK9 [1]; Concentration 100 μM): 20%
% Change Vs Vehicle Control HDL-C [4]: −20.1%
% Change Vs Vehicle Control LDL-C [4]: −29.3%
% Change Vs Vehicle Control TC [4]: −29.6%
% Change Vs Vehicle Control TG [4]: −26.7%

Molecule: N-hydroxy-2-methyl-5-(2-(5-methyl-2-phenyloxazol-4-yl)ethyl)-1,3-dioxane-2-carboxamide [Example 34]
Relative response (RU) (PCSK9 [3]): 1.95 RU
% Inhibition PCSK9 (PCSK9 [1]; Concentration 1 μM): 11%
% Inhibition PCSK9 (PCSK9 [1]; Concentration 10 μM): 12%
% Inhibition PCSK9 (PCSK9 [1]; Concentration 100 μM): 15%
% Change Vs Vehicle Control HDL-C [4]: −10.3%
% Change Vs Vehicle Control LDL-C [4]: −38.2%
% Change Vs Vehicle Control TC [4]: −32.6%
% Change Vs Vehicle Control TG [4]: 2.2%

Molecule: Cc1oc(-c2ccccc2)nc1CC1COC(C)(C(=O)NCC2CCOCC2)OC1 (centres unmarked) [Example 8, 2-methyl-5-((5-methyl-2-phenyloxazol-4-yl)methyl)-N—((tetrahydro-2H-pyran-4-yl)methyl)-1,3-dioxane-2-carboxamide]
inhibition at 1 µM (PCSK9 [1]; Concentration 1 μM): 18%
inhibition at 10 µM (PCSK9 [1]; Concentration 10 μM): 23%
inhibition at 100 µM (PCSK9 [1]; Concentration 100 μM): 30%
% Change in LDL-C [2]: −33.5 ± 5.4%

Molecule: Cc1ccc(-c2nc(CC3COC(C)(C(=O)NCC4CCOCC4)OC3)c(C)o2)cc1 (centres unmarked) [Example 64, 2-methyl-5-t-((5-methyl-2-(p-tolyl)oxazol-4-yl)methyl)-N—((tetrahydro-2H-pyran-4-yl)methyl)-1,3-dioxane-2-carboxamide]
Relative response (RU) (PCSK9 [3]): 3.48 RU
% Inhibition PCSK9 (PCSK9 [1]; Concentration 0.1 μM): 20%
% Inhibition PCSK9 (PCSK9 [1]; Concentration 1 μM, 1 µM): 23%
% Inhibition PCSK9 (PCSK9 [1]; Concentration 10 μM, 10 µM): 25%
% Inhibition PCSK9 (PCSK9 [1]; Concentration 100 μM, 100 µM): 49%

Molecule: Cc1oc(-c2ccccc2)nc1CCC1COC(C)(C(=O)N2CCOCC2)OC1 (centres unmarked) [Example 40, (2-methyl-5-(2-(5-methyl-2-phenyloxazol-4-yl)ethyl)-1,3-dioxan-2-yl)(morpholino)methanone]
inhibition at 1 µM (PCSK9 [1]; Concentration 1 μM): 20%
inhibition at 10 µM (PCSK9 [1]; Concentration 10 μM): 25%
inhibition at 100 µM (PCSK9 [1]; Concentration 100 μM): 11%
% Change in LDL-C [2]: −34.1 ± 5.7%

Molecule: Cc1oc(-c2ccccc2)nc1CC1COC(C)(C(=O)N2CCN(C)CC2)OC1 (centres unmarked) [Example 14, (2-methyl-5-c-((5-methyl-2-phenyloxazol-4-yl)methyl)-1,3-dioxan-2-yl)(4-methylpiperazin-1-yl)methanone]
Relative response (RU) (PCSK9 [3]): 15.81 RU
% Inhibition PCSK9 (PCSK9 [1]; Concentration 10 μM): 41%
% Inhibition PCSK9 (PCSK9 [1]; Concentration 100 μM): 5%

Molecule: Cc1oc(-c2ccccc2)nc1CCC1COC(C)(C(=O)NCC2CCOCC2)OC1 (centres unmarked) [Example 37, 2-methyl-5-(2-(5-methyl-2-phenyloxazol-4-yl)ethyl)-N—((tetrahydro-2H-pyran-4-yl)methyl)-1,3-dioxane-2-carboxamide]
inhibition at 1 µM (PCSK9 [1]; Concentration 1 μM): 24%
inhibition at 10 µM (PCSK9 [1]; Concentration 10 μM): 15%
inhibition at 100 µM (PCSK9 [1]; Concentration 100 μM): 20%
% Change in LDL-C [2]: −35.4 ± 8.3%

The next lines start with results.

inhibition at 1 µM (PCSK9 [1]; Concentration 1 μM): 20%
inhibition at 10 µM (PCSK9 [1]; Concentration 10 μM): 16%
inhibition at 100 µM (PCSK9 [1]; Concentration 100 μM): 49%
Molecule: Cc1nc(-c2ccc(C(F)(F)F)cc2)sc1CC1COC(C)(C(=O)N2CCOCC2)OC1 (centres unmarked) [Example 93, (2-methyl-5-((4-methyl-2-(4-(trifluoromethyl)phenyl)thiazol-5-yl)methyl)-1,3-dioxan-2-yl)(morpholino)methanone]
% Change in LDL-C [2]: −46.0 ± 6.2%

Relative response (RU) (PCSK9 [3]): 2.23 RU
% Inhibition PCSK9 (PCSK9 [1]; Concentration 1 μM, 1 µM): 25%
% Inhibition PCSK9 (PCSK9 [1]; Concentration 10 μM, 10 µM): 29%
% Inhibition PCSK9 (PCSK9 [1]; Concentration 100 μM, 100 µM): 65%
Molecule: Cc1oc(-c2ccncc2)nc1CC1COC(C)(C(=O)NCC2CCOCC2)OC1 (centres unmarked) [Example 84, 2-methyl-5-c-((5-methyl-2-(pyridin-4-yl)oxazol-4-yl)methyl)-N—((tetrahydro-2H-pyran-4-yl)methyl)-1,3-dioxane-2-carboxamide]
% Change in LDL-C [2]: −25.8 ± 8.6%

Relative response (RU) (PCSK9 [3]): 14.95 RU
% Inhibition PCSK9 (PCSK9 [1]; Concentration 10 μM, 10 µM): 11%
% Inhibition PCSK9 (PCSK9 [1]; Concentration 100 μM, 100 µM): 15%
Molecule: Cc1oc(-c2ccncc2)nc1CC1COC(C)(C(=O)NCC(=O)N2CCOCC2)OC1 (centres unmarked) [Example 86, 2-methyl-5-c-((5-methyl-2-(pyridin-4-yl)oxazol-4-yl)methyl)-N-(2-morpholino-2-oxoethyl)-1,3-dioxane-2-carboxamide]

inhibition at 1 µM (PCSK9 [1]; Concentration 1 μM): 8%
inhibition at 10 µM (PCSK9 [1]; Concentration 10 μM): 12%
inhibition at 100 µM (PCSK9 [1]; Concentration 100 μM): 32%
Molecule: Cc1nc(-c2ccc(C(F)(F)F)cc2)sc1CC1COC(C)(C(=O)NO)OC1 (centres unmarked) [Example 91, N-hydroxy-2-methyl-5-((4-methyl-2-(4-(trifluoromethyl)phenyl)thiazol-5-yl)methyl)-1,3-dioxane-2-carboxamide]
% Change in LDL-C [2]: −37.4 ± 8.8%

% Inhibition PCSK9 (PCSK9 [1]; Concentration 1 μM): 11%
% Inhibition PCSK9 (PCSK9 [1]; Concentration 10 μM): 26%
% Inhibition PCSK9 (PCSK9 [1]; Concentration 100 μM): 40%
Molecule: 1-(2-methyl-5-((4-methyl-2-(4-(trifluoromethyl)phenyl)thiazol-5-yl)methyl)-1,3-dioxan-2-yl)-N—((tetrahydro-2H-pyran-4-yl)methyl)methanamine [Example 92]
% Change in LDL-C [2]: −35.8 ± 10.5%

Relative response (RU) (PCSK9 [3]): 2.64 RU
% Inhibition PCSK9 (PCSK9 [1]; Concentration 1 μM, 1 µM): 32%
% Inhibition PCSK9 (PCSK9 [1]; Concentration 10 μM, 10 µM): 44%
% Inhibition PCSK9 (PCSK9 [1]; Concentration 100 μM, 100 µM): 34%
Molecule: Cc1oc(-c2ccncc2)nc1CC1COC(C)(C(=O)NO)OC1 (centres unmarked) [Example 80, N-hydroxy-2-methyl-5-c-((5-methyl-2-(pyridin-4-yl)oxazol-4-yl)methyl)-1,3-dioxane-2-carboxamide]
